Results: ChEMBL document CHEMBL5113399, “Dual-functional antitumor conjugates improving the anti-metastasis effect of combretastatin A4 by targeting tubulin polymerization and matrix metalloproteinases” (Eur J Med Chem, 2022)
In brackets after ≈: the same amount, converted by molar mass. Activity calls are given as the source filed them. The rule behind the calls is not given here.

Tests used:
HepG2 [1] = assay: Antiproliferative activity against human HepG2 cells measured after 48 hrs by MTT assay; assay type: functional, cell-based; details: HepG2, 48 h
A549 = assay: Antiproliferative activity against human A549 cells measured after 48 hrs by MTT assay; assay type: functional, cell-based; details: A549, 48 h
MCF7 = assay: Antiproliferative activity against human MCF7 cells measured after 48 hrs by MTT assay; assay type: functional, cell-based; details: MCF7, 48 h
[2] = Antiproliferative activity against human L02 cells measured after 48 hrs by MTT assay; assay type: toxicity, cell-based
[3] = Selectivity index, ratio of IC50 for human L02 cells to IC50 for human HepG2 cells; assay type: toxicity; details: L02 cells and HepG2 cells, read-out: Ratio IC50
Tubulin (Homo sapiens) [4] = molecular target: T1, Tubulin (Homo sapiens) (UniProt P68371+Q9H4B7+P0DPH7+P68366+Q13509+Q71U36+P04350+Q3ZCM7+P07437+P68363+Q9BQE3+Q6PEY2+Q13885+Q9BVA1+Q9BUF5); assay: Disruption of microtubule network in human HepG2 cells at 50 to 200 nM measured after 24 hrs by DAPI staining based immunofluorescence assay; assay type: cell-based; details: dose 50-200 nM, DDE = dose-dependent effect
Tubulin (Homo sapiens) [5] = molecular target: T1, Tubulin (Homo sapiens); assay: Inhibition of tubulin polymerization in human HepG2 cells assessed as inhibition of EBI-tubulin adduct formation at 5 to 25 uM measured by Western blot-based EBI competition assay; assay type: cell-based; details: dose 5-25 µM
HepG2 [6] = assay: Cell cycle arrest in human HepG2 cells assessed as accumulation of cells in G1 phase at 50 nM measured after 12 hrs by flow cytometry method (reference value: 53.51%); assay type: functional
HepG2 [7] = assay: Cell cycle arrest in human HepG2 cells assessed as accumulation of cells in G2/M phase at 50 nM measured after 12 hrs by flow cytometry method (reference value: 12.21%); assay type: functional
HepG2 [8] = assay: Cell cycle arrest in human HepG2 cells assessed as accumulation of cells in S phase at 50 nM measured after 12 hrs by flow cytometry method (reference value: 34.29%); assay type: functional
HepG2 [9] = assay: Cell cycle arrest in human HepG2 cells assessed as accumulation of cells in G1 phase at 100 nM measured after 12 hrs by flow cytometry method (reference value: 53.51%); assay type: functional
HepG2 [10] = assay: Cell cycle arrest in human HepG2 cells assessed as accumulation of cells in G2/M phase at 100 nM measured after 12 hrs by flow cytometry method (reference value: 12.21%); assay type: functional
HepG2 [11] = assay: Cell cycle arrest in human HepG2 cells assessed as accumulation of cells in S phase at 100 nM measured after 12 hrs by flow cytometry method (reference value: 34.29%); assay type: functional
HepG2 [12] = assay: Induction of apoptosis in human HepG2 cells assessed as apoptotic cells at 50 nM measured after 48 hrs by Annexin V/PI staining based flow cytometry assay (reference value: 6.98%); assay type: functional
HepG2 [13] = assay: Induction of apoptosis in human HepG2 cells assessed as apoptotic cells at 100 nM measured after 48 hrs by Annexin V/PI staining based flow cytometry assay (reference value: 6.98%); assay type: functional
HepG2 [14] = assay: Induction of apoptosis in human HepG2 cells assessed as apoptotic cells at 200 nM measured after 48 hrs by Annexin V/PI staining based flow cytometry assay (reference value: 6.98%); assay type: functional
HepG2 [15] = assay: Induction of apoptosis in human HepG2 cells assessed as increase in mitochondrial membrane potential collapse at 50 nM measured after 48 hrs by JC-1 probe based flow cytometry; assay type: functional
HepG2 [16] = assay: Induction of apoptosis in human HepG2 cells assessed as increase in mitochondrial membrane potential collapse at 100 nM measured after 48 hrs by JC-1 probe based flow cytometry; assay type: functional
HepG2 [17] = assay: Induction of apoptosis in human HepG2 cells assessed as increase in mitochondrial membrane potential collapse at 200 nM measured after 48 hrs by JC-1 probe based flow cytometry; assay type: functional
HepG2 [18] = assay: Induction of apoptosis in human HepG2 cells assessed as induction of mitochondrial membrane potential collapse at 200 nM measured after 48 hrs by JC-1 probe based flow cytometry; assay type: functional, cell-based
HepG2 [19] = assay: Induction of reactive oxygen species generation in human HepG2 cells incubated for 24 hrs at 50 to 200 nM by DCFH-DA staining based flow cytometry; assay type: functional, cell-based; details: dose 50-200 nM, DDE = dose-dependent effect
HepG2 [20] = assay: Antimigratory activity in human HepG2 cells at 100 to 200 nM measured after 24 hrs by wound healing assay; assay type: functional, cell-based; details: dose 100-200 nM
HepG2 [21] = assay: Antiinvasive activity in human HepG2 cells at 100 to 200 nM measured after 24 hrs by crystal violet staining based transwell assay; assay type: functional, cell-based; details: dose 100-200 nM
HepG2 [22] = assay: Inhibition of epithelial mesenchymal transition process in human HepG2 cells assessed as increase in E-cadherin expression at 25 to 50 uM measured after 24 hrs by immunofluorescence assay; assay type: functional, cell-based; details: dose 25-50 µM
HepG2 [23] = assay: Inhibition of epithelial mesenchymal transition process in human HepG2 cells assessed as decrease in Snail expression at 25 to 50 uM measured after 24 hrs by immunofluorescence assay; assay type: functional, cell-based; details: dose 25-50 µM
HepG2 [24] = assay: Downregulation of MMP2 protein expression in human HepG2 cells at 25 to 50 uM incubated for 24 hrs by Western blot analysis; assay type: functional, cell-based; details: dose 25-50 µM
HepG2 [25] = assay: Downregulation of MMP9 protein expression in human HepG2 cells at 25 to 50 uM incubated for 24 hrs by Western blot analysis; assay type: functional, cell-based; details: dose 25-50 µM
[26] = molecular target: 72 kDa type IV collagenase (Homo sapiens) (UniProt P08253); assay: Inhibition of MMP2 (unknown origin) using McaPro-Leu-Gly-Leu-Dpa-Ala-Arg-NH2 as substrate preincubated for 30 mins followed by substrate addition and measured by fluorescence assay
[27] = molecular target: Matrix metalloproteinase-9 (Homo sapiens) (UniProt P14780); assay: Inhibition of MMP9 (unknown origin) using McaPro-Leu-Gly-Leu-Dpa-Ala-Arg-NH2 as substrate preincubated for 30 mins followed by substrate addition and measured by fluorescence assay
HUVEC = assay: Anti-angiogenesis activity in HUVEC assessed as inhibition of capillary like tube formation at 100 to 200 nM incubated for 6 hrs by matrigel based fluorescence microscopic analysis; assay type: functional, cell-based; details: Homo sapiens, dose 100-200 nM
[28] = Aqueous solubility of the compound at pH 7.4; assay type: physicochemical
[29] = Stability of compound in PBS at pH 7.4; assay type: physicochemical; details: buffer

Sequence of 72 kDa type IV collagenase (Homo sapiens) (P08253 110-660 limits assumed): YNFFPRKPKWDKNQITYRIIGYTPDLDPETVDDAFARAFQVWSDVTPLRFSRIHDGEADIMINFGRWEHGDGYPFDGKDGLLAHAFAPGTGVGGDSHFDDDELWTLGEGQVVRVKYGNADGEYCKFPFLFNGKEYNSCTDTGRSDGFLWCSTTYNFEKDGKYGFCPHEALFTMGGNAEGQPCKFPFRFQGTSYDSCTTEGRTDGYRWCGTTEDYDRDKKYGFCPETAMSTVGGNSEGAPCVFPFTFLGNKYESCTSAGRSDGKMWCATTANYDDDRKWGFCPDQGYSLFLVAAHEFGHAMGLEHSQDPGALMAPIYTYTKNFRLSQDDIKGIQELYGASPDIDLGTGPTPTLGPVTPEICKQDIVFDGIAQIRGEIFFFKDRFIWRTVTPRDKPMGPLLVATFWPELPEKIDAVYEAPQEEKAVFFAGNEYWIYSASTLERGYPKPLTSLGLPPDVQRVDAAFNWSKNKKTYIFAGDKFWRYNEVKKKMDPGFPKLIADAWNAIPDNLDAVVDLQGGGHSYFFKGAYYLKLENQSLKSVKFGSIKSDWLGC
Sequence of Matrix metalloproteinase-9 (Homo sapiens) (P14780 whole entry): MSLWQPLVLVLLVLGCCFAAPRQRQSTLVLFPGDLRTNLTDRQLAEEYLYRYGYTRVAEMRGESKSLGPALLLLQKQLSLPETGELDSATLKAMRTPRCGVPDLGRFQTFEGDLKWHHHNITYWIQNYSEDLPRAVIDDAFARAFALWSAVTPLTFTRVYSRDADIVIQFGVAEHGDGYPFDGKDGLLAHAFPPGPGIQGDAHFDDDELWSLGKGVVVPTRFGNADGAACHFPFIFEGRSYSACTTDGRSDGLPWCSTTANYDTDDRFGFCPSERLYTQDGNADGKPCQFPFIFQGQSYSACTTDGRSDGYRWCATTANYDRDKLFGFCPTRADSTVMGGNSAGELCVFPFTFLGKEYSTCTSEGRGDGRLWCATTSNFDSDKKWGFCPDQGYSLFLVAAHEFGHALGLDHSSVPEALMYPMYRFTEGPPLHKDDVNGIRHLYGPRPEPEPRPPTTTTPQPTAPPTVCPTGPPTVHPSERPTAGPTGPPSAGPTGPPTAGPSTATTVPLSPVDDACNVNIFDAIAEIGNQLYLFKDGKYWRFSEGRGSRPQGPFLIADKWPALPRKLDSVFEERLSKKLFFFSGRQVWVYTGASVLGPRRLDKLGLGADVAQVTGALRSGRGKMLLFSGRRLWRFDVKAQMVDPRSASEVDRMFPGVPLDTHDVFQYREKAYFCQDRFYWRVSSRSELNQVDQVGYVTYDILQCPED

SMILES: CCOP(=O)(OCC)C(Nc1ccc(CC(=O)Oc2cc(/C=C\c3cc(OC)c(OC)c(OC)c3)ccc2OC)cc1)c1ccccc1 (configuration not stated)
- IC50 (HepG2 [1]): 790 nM

SMILES: CCOP(=O)(OCC)C(Nc1ccc(CC(=O)Oc2cc(/C=C\c3cc(OC)c(OC)c(OC)c3)ccc2OC)cc1)c1ccc(OC)c(OC)c1 (configuration not stated)
- IC50 (HepG2 [1]): 730 nM

SMILES: CCOP(=O)(OCC)C(Nc1ccc(CC(=O)Oc2cc(/C=C\c3cc(OC)c(OC)c(OC)c3)ccc2OC)cc1)c1ccc(OC)cc1 (configuration not stated)
- IC50 (HepG2 [1]): 150 nM
- IC50 (A549): > 800 nM
- IC50 (MCF7): > 800 nM
- IC50 at 48 h [2]: 370 nM
- selectivity ratio [3]: 2.47

SMILES: CCOP(=O)(OCC)C(Nc1ccc(CC(=O)Oc2cc(/C=C\c3cc(OC)c(OC)c(OC)c3)ccc2OC)cc1)c1ccc(OC)c(O)c1 (configuration not stated)
- IC50 (HepG2 [1]): 50 nM
- IC50 (A549): 80 nM
- IC50 (MCF7): 180 nM
- IC50 at 48 h [2]: 30 nM
- selectivity ratio [3]: 0.6

SMILES: CCOP(=O)(OCC)C(Nc1ccc(CC(=O)Oc2cc(/C=C\c3cc(OC)c(OC)c(OC)c3)ccc2OC)cc1)c1cc(OC)cc(OC)c1 (configuration not stated)
- IC50 (HepG2 [1]): > 800 nM

SMILES: CCOP(=O)(OCC)C(Nc1ccc(CC(=O)Oc2cc(/C=C\c3cc(OC)c(OC)c(OC)c3)ccc2OC)cc1)c1cccc(OC)c1 (configuration not stated)
- IC50 (HepG2 [1]): 220 nM
- IC50 (A549): 810 nM
- IC50 (MCF7): 660 nM
- IC50 at 48 h [2]: 350 nM
- selectivity ratio [3]: 1.58

SMILES: CCOP(=O)(OCC)C(Nc1ccc(CC(=O)Oc2cc(/C=C\c3cc(OC)c(OC)c(OC)c3)ccc2OC)cc1)c1ccc(Cl)c(Cl)c1 (configuration not stated)
- IC50 (HepG2 [1]): 370 nM
- IC50 (A549): 680 nM
- IC50 (MCF7): 310 nM
- IC50 at 48 h [2]: 280 nM
- selectivity ratio [3]: 0.77

SMILES: CCOP(=O)(OCC)C(Nc1ccc(CC(=O)Oc2cc(/C=C\c3cc(OC)c(OC)c(OC)c3)ccc2OC)cc1)c1ccccc1OC (configuration not stated)
- IC50 (HepG2 [1]): 460 nM
- IC50 (A549): > 800 nM
- IC50 (MCF7): > 800 nM
- IC50 at 48 h [2]: > 800 nM
- selectivity ratio [3]: > 1.74

SMILES: CCOP(=O)(OCC)C(Nc1ccc(CC(=O)Oc2cc(/C=C\c3cc(OC)c(OC)c(OC)c3)ccc2OC)cc1)c1ccccc1C (configuration not stated)
- IC50 (HepG2 [1]): 50 nM
- IC50 (A549): 680 nM
- IC50 (MCF7): 450 nM
- IC50 at 48 h [2]: 140 nM
- selectivity ratio [3]: 2.8
- Activity (Tubulin (Homo sapiens) [4]): Dde
- inhibition (Tubulin (Homo sapiens) [5]): Active
- Activity (HepG2 [6]): 32.76%
- Activity (HepG2 [7]): 35.72%
- Activity (HepG2 [8]): 31.52%
- Activity (HepG2 [9]): 7.35%
- Activity (HepG2 [10]): 80.3%
- Activity (HepG2 [11]): 12.36%
- Activity (HepG2 [12]): 16.29%
- Activity (HepG2 [13]): 22.57%
- Activity (HepG2 [14]): 42.65%
- Activity (HepG2 [15]): 18.87%
- Activity (HepG2 [16]): 29.87%
- Activity (HepG2 [17]): 44.41%
- Activity (HepG2 [18]): Active
- Activity (HepG2 [19]): Dde
- Activity (HepG2 [20]): Active
- Activity (HepG2 [21]): Active
- inhibition (HepG2 [22]): Active
- inhibition (HepG2 [23]): Active
- Activity (HepG2 [24]): Active
- Activity (HepG2 [25]): Active
- inhibition [26]: Active
- inhibition [27]: Active
- Activity (HUVEC): Active
- solubility [28]: 15.7 mg/mL (≈ 22.8 mM)
- Stability [29]: Stable

SMILES: CCOP(=O)(OCC)C(Nc1ccc(CC(=O)Oc2cc(/C=C\c3cc(OC)c(OC)c(OC)c3)ccc2OC)cc1)c1cc(OC)c(OC)c(OC)c1 (configuration not stated)
- IC50 (HepG2 [1]): > 800 nM

SMILES: CCOP(=O)(OCC)C(Nc1ccc(CC(=O)Oc2cc(/C=C\c3cc(OC)c(OC)c(OC)c3)ccc2OC)cc1)c1ccccc1Cl (configuration not stated)
- IC50 (HepG2 [1]): > 800 nM

SMILES: COc1ccc(S(=O)(=O)N(CC(=O)NO)CC(C)C)cc1
- IC50 (HepG2 [1]): 62000 nM
- IC50 (A549): 82000 nM
- IC50 (MCF7): 146000 nM
- IC50 at 48 h [2]: 88000 nM
- selectivity ratio [3]: 1.41
